According to the supplement of paper PMC7801607:

System: Plasmodium falciparum Dd2 asexual blood stage

`CC[C@H]1OC(=O)[C@H](C)[C@@H](O[C@H]2C[C@@](C)(OC)[C@@H](O)[C@H](C)O2)[C@H](C)[C@@H](O[C@@H]2O[C@H](C)C[C@H](N(C)C)[C@H]2O)[C@](C)(O)C[C@@H](C)C(=O)[C@H](C)[C@@H](O)[C@]1(C)O` and `C[C@H]1CC[C@]2(NC1)O[C@H]1C[C@H]3[C@@H]4CC[C@H]5C[C@@H](O)CC[C@]5(C)[C@H]4CC[C@]3(C)[C@H]1[C@@H]2C` cannot be ordered by IC50: over 5 µM for the first, over 5 µM for the second.

`CN(C/C=C/C#CC(C)(C)C)Cc1cccc2ccccc12` and `CN(C)CCNC(=O)c1cccc2cccnc12` cannot be ordered by IC50: over 5 µM for the first, over 5 µM for the second.

`N[C@H]1CCC[C@H]1C(=O)O` and `CC(=N)N1CC[C@H](SC2=C(C(=O)O)N3C(=O)[C@@H]([C@@H](C)O)[C@H]3C2)C1` cannot be ordered by IC50: over 5 µM for the first, over 5 µM for the second.

`COc1ccc(OCc2ccc(COc3c(Cl)cccc3Cl)cc2)c(Cl)c1` and `COc1ccc(COc2cc3oc(=O)c4cc(C(C)O)ccc4c3cc2OC)cc1` (configuration not stated) cannot be ordered by IC50: over 5 µM for the first, over 5 µM for the second.

`O=[N+]([O-])c1cn(Cc2nc(O)nc(O)c2Br)cn1` and `Cc1ncc([N+](=O)[O-])n1CC(C)O` (configuration not stated) cannot be ordered by IC50: over 5 µM for the first, over 5 µM for the second.

`O=c1[nH]c(=O)n(Cc2cccc(Oc3ccccc3)c2)cc1Nc1ccccc1` and `c1ccc(Cn2c(-c3ccccn3)nc3ccccc32)cc1` cannot be ordered by IC50: over 5 µM for the first, over 5 µM for the second.

`Cc1c[nH]c(=O)nc1NCc1ccccc1` and `Cc1ccn2c(C(=O)NCc3ccccc3)c(C)nc2c1` cannot be ordered by IC50: over 5 µM for the first, over 5 µM for the second.

`Nc1nc(O)ncc1F` and `CN(C)c1[nH]c(=O)ncc1F` cannot be ordered by IC50: over 5 µM for the first, over 5 µM for the second.

`O=C(O)c1ccccc1Sc1ncnc2sc3c(c12)CCC3` and `Nc1cc(-c2nc3ccccc3[nH]2)n[nH]c1=O` cannot be ordered by IC50: over 5 µM for the first, over 5 µM for the second.

`CSC[C@H]1CN(Cc2c[nH]c3c(N)ncnc23)C[C@@H]1O` and `CCc1cc(O)c(Oc2cccnc2N)cc1F` cannot be ordered by IC50: over 5 µM for the first, over 5 µM for the second.

`Cc1ccccc1NC(=O)Nc1cccc([N+](=O)[O-])c1` and `C=C(C)n1c(=O)n(Cc2ccccc2C)c2ccccc21` cannot be ordered by IC50: over 5 µM for the first, over 5 µM for the second.

`COc1cc(C2C3=C(CC(C)(C)CC3=O)Nc3ccccc3N2C(C)=O)ccc1OCc1ccccc1` (configuration not stated) and `CC(=O)N1c2ccccc2NC2=C(C(=O)CC(C)(C)C2)C1c1ccc(OCc2ccccc2)cc1` (configuration not stated) cannot be ordered by IC50: over 5 µM for the first, over 5 µM for the second.

`CC(C)(C)NC(=O)N[C@H](C(=O)N1C[C@H]2[C@@H]([C@H]1C(=O)NC(CC1CCC1)C(=O)C(N)=O)C2(C)C)C(C)(C)C` (some centres not stated) and `CCC[C@H](NC(=O)[C@@H]1[C@H]2CCC[C@H]2CN1C(=O)[C@@H](NC(=O)[C@@H](NC(=O)c1cnccn1)C1CCCCC1)C(C)(C)C)C(=O)C(=O)NC1CC1` cannot be ordered by IC50: over 5 µM for the first, over 5 µM for the second.

`C[C@H](NC(CC(=O)c1ccccc1C(F)(F)F)C(=O)O)c1ccccc1` (some centres not stated) and `CN1C(=O)C(c2ccccc2)C(=O)N(c2ccccc2)c2cc(C(F)(F)F)ccc21` (configuration not stated) cannot be ordered by IC50: over 5 µM for the first, over 5 µM for the second.

`NC[C@H]1OB(O)c2c(OCCCO)cccc21` and `Cc1ccc(C)c(OCCCCCCN2C[C@H](O)[C@@H](O)[C@H](O)[C@H]2CO)c1` cannot be ordered by IC50: over 5 µM for the first, over 5 µM for the second.

`CCN1CCN(Cc2nc3ccc([N+](=O)[O-])cc3c(=O)n2-c2ccccc2F)CC1` and `O=c1nc(N2CCN(CC3CCCCC3)CC2)sc2c([N+](=O)[O-])cc(C(F)(F)F)cc12` cannot be ordered by IC50: over 5 µM for the first, over 5 µM for the second.

`COc1ccc2sc3c(c2c1)NC(C)CNC3=O` (configuration not stated) and `COc1ccc(C2CNC(=O)C2)cc1OC1CCCC1` (configuration not stated) cannot be ordered by IC50: over 5 µM for the first, over 5 µM for the second.

First: O=C1c2cccc3cccc(c23)C(=O)N1CC1CO1 (configuration not stated)
Second: N#CCN1C(=O)COc2cc(F)c(N3C(=O)c4ccccc4C3=O)cc21
The IC50 of the first is lower: 4.29 µM for the first, over 5 µM for the second. The first is the more potent here.

First: CC[C@@]1(O)C(=O)OCc2c1cc1n(c2=O)Cc2cc3c(CN(C)C)c(O)ccc3nc2-1
Second: COc1ccc2c(c1OC)C(=O)OC2C1c2c(cc3c(c2OC)OCO3)CCN1C (configuration not stated)
The IC50 of the first is lower: 4.12 µM for the first, over 5 µM for the second.

`C[C@@H](c1nc(-c2ccc(C#N)cc2)cs1)[C@](O)(Cn1cncn1)c1ccc(F)cc1F` and `COc1ccc(NC(=O)c2cc3ccccn3n2)cc1` cannot be ordered by IC50: over 5 µM for the first, over 5 µM for the second.

`COc1ccc(C)cc1NC(=O)c1ccc(S(=O)(=O)N2CCCCC2)cc1` and `CCCNc1ccc(S(=O)(=O)Nc2cc(C)on2)cc1` cannot be ordered by IC50: over 5 µM for the first, over 5 µM for the second.

`CCCC(=O)OCCc1ccccc1` and `CCCCCCCCC(CP(=O)(O)C(C)N)C(=O)O` (configuration not stated) cannot be ordered by IC50: over 5 µM for the first, over 5 µM for the second.

`CCNC(=O)Nc1cc2c(-c3ccnc(C)c3)ccc(CNC(=O)OC)c2cn1` and `Nc1nnnn1CCOc1c2[nH]c3ccc(Cl)cc3c2cc2c1[nH]c1ccc(Cl)cc12` cannot be ordered by IC50: over 5 µM for the first, over 5 µM for the second.

`CCCCN1C[C@H](O)[C@@H](O)[C@H](O)[C@H]1CO` and `CO/N=C(\C(=O)N[C@@H]1C(=O)N2C(C(=O)OCOC(=O)C(C)(C)C)=C(/C=C\c3scnc3C)CS[C@H]12)c1csc(N)n1` cannot be ordered by IC50: over 5 µM for the first, over 5 µM for the second.

`Nc1nc2c(ncn2/C=C2/CC2(CO)CO)c(=O)[nH]1` and `Nc1ccc2oc(=O)ccc2c1I` cannot be ordered by IC50: over 5 µM for the first, over 5 µM for the second.

`CC(C)c1cc2c(cc1S(=O)(=O)O)[C@@]1(C)CCC[C@@](C)(C(=O)O)[C@@H]1CC2` and `Nc1nc(NC2Cc3ccc(F)cc3C2)nc(N2CCCCC2)n1` (configuration not stated) cannot be ordered by IC50: over 5 µM for the first, over 5 µM for the second.
